Laboratory results as given in patent US20110183978A1, “Phenylpyri(mi)dinylazoles” (Bayer CropScience AG, priority 2009, published 2011).
Where a name gives a salt, the structure may show the parent alone. Read-outs that look alike come from different tables or passages of the source.

Experiments:
[1] = determination of the log P values by HPLC on a reverse phase column (C18), EEC-Directive 79/831 Annex V.A8
Gibberella zeae = format: in vivo; settings: 250 ppm; rice, protective; assessment 5 days after inoculation
Leptosphaeria nodorum = test: Example Q: in vivo test on Leptosphaeria nodorum (glume blotch in wheat/protective); settings: Parastagonospora nodorum, 192 h, wheat, protective, assessment 8 days after inoculation, read-out: % Wirkungsgrad
Outline: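 Protective test: young wheat plants sprayed with compound formulated in N,N-dimethylacetamide plus alkylaryl polyglycol ether emulsifier, diluted in water to the stated dose. After drying, plants inoculated with L. nodorum spore suspension; disease assessed 8 days post-inoculation.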

Sphaerotheca fuliginea [2] = test: Example L: in vivo test on Sphaerotheca fuliginea (powdery mildew on cucumber/protective); settings: Podosphaera fuliginea, 168 h, cucumber, protective, assessment 7 days after inoculation, read-out: % Wirkungsgrad
Outline: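 Young cucumber plants sprayed at stated dosage with compound in DMF/alkylaryl polyglycol ether emulsifier diluted in water; inoculated with S. fuliginea spores one day later. Kept in greenhouse at 70% relative humidity, 23° C; protective activity assessed 7 days after inoculation.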

Rhizoctonia solani = test: Example W: in vivo test on Rhizoctonia solani (sheath blight in rice/protective); settings: 96 h, rice, protective, 250 ppm active substance, assessed 4 days after inoculation, read-out: % Activity level
Outline: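 Young rice plants sprayed protectively with compound in acetone/alkylaryl polyglycol ether emulsion diluted in water at stated dosage. Inoculated with R. solani hyphae one day later; disease assessed 4 days post-inoculation.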

Plasmopara viticola = test: Example N: in vivo test on Plasmopara viticola (downy mildew, vine/protective); settings: 144 h, vine, protective, assessment 6 days after inoculation, read-out: % Wirkungsgrad
Outline: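 Protective test: young vine plants were sprayed with active substance diluted in water from a solvent/alkylaryl polyglycol ether emulsifier concentrate at the stated dosage, then inoculated with P. viticola. Plants were moistened and kept 1 day in an incubation cabin, and assessed 6 days after inoculation.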

Pyricularia oryzae = test: whole plant or invertebrate; format: in vivo; settings: 120 h, read-out: % Activity level
[3] = tested on: Fusarium nivale (var. majus); test: whole plant or invertebrate; format: in vivo; settings: Microdochium nivale, in Triticum aestivum, 120 h, read-out: % Wirkungsgrad (activity level)
Fusarium graminearum [4] = test: whole plant or invertebrate; format: in vivo; settings: in Hordeum vulgare, 120 h, read-out: % Wirkungsgrad (activity level)
Botrytis cinerea = test: Example P: in vivo test on Botrytis cinerea (gray mould on bean/protective); settings: 48 h, bean, protective, 250 ppm active substance, assessed 2 days after inoculation, read-out: % Wirkungsgrad (activity level)
Outline: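 Protective test: young bean plants sprayed with the active substance preparation (emulsifier-based concentrate diluted in water) at the stated dosage. Once dry, each leaf received 2 agar pieces bearing Botrytis cinerea. Infection blotch size assessed 2 days after inoculation.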

Fusarium graminearum [5] = test: microbe, parasite or virus in culture; format: cell-based
Venturia inaequalis = test: Example O: in vivo test on Venturia inaequalis (apple scab/protective); settings: 240 h, protective, assessment 10 days after inoculation, read-out: % Wirkungsgrad
Outline: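 Protective test: active substance mixed with solvent and alkylaryl polyglycol ether emulsifier, diluted with water, and sprayed on young plants at the stated dosage before Venturia inaequalis inoculation. Scab assessed 10 days after inoculation.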

Rhynchosporium secalis = test: Example S: in vivo test on Rhynchosporium secalis (leaf scald in barley/protective); settings: 336 h, barley, protective, 1000 ppm active substance, assessed 14 days after inoculation, read-out: % Wirkungsgrad (activity level)
Experimental: Solvent: 49 parts by weight N,N-dimethylacetamide Emulsifier: 1 part by weight alkylaryl polyglycol ethers For the preparation of a suitable active substance preparation, 1 part by weight of active substance is mixed with the stated quantities of solvent and emulsifier and the concentrate is diluted to the desired concentration with water. For the testing for protective activity, young plants are sprayed with the active substance preparation at the stated application dosage. After drying of the spray coating, the plants are sprayed with spores with a spore suspension of Rhynchosporium secalis. […] 14 days after the inoculation, the assessment takes place.

Fusarium proliferatum = test: Example I: production of fumonisin FB1 by Fusarium proliferatum (microtitre plates); format: cell-based; settings: 120 h
Septoria tritici = test: Example R: in vivo test on Septoria tritici (leaf blotch in wheat/protective); settings: Zymoseptoria tritici, 504 h, wheat, protective, 1000 ppm active substance, assessed 21 days after inoculation, read-out: % Wirkungsgrad (activity level)
Outline: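 Protective test: young wheat plants sprayed with compound in N,N-dimethylacetamide/alkylaryl polyglycol ether emulsifier diluted in water, dried, then inoculated with Septoria tritici spore suspension. Disease assessed 21 days after inoculation.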

Cochliobolus miyabeanus = test: Example X: in vivo test on Cochliobolus miyabeanus (brown spot disease, rice/protective); settings: Bipolaris oryzae, 96 h, read-out: % Activity level
Pythium ultimum = test: Example U: in vivo test on Pythium ultimum (root rot/damping off in cotton/seed treatment); settings: 50 g/dt; cotton seed treatment; emergence counted after 7 days
Experimental: The test was performed under greenhouse conditions. Cotton seeds, treated with an active compound according to the invention or a combination of active compounds according to the invention were sown in 6*6 cm size vessels, in a mixture of steamed field earth and sand (1:1). The test compound/s were dissolved in N-methyl-2-pyrrolidone and diluted to the desired concentration with water. The plants were grown at 10° C. Perlite was inoculated with mycelium from Pythium ultimum. 1 mL of the infected perlite was distributed between the treated cotton seeds. […] The assessment was made by counting the emergence.

Alternaria solani = test: Example M: in vivo test on Alternaria solani (leaf blotch disease/tomato/protective); settings: 168 h, tomato, protective, 500 ppm active substance, assessed 7 days after inoculation, read-out: % Wirkungsgrad (activity level)
Outline: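 Protective test: young tomato plants sprayed with active substance (in DMF with alkylaryl polyglycol ether emulsifier, diluted in water) at the stated dosage, then inoculated with Alternaria solani. Disease assessed 7 days after inoculation.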

Pyricularia grisea = format: in vivo; settings: 500 ppm; rice plants sprayed 24 hours before inoculation; scored after 6 days
Puccinia recondita = test: Example F: in vivo test on Puccinia recondita (wheat brown rust); settings: 240 h, wheat plants sprayed 24 hours before inoculation, scored after 10 days, read-out: % Wirkungsgrad
Experimental: In Vivo Test on Puccinia Recondita (Wheat Brown Rust) An aqueous suspension of the active substance was prepared by homogenization of a mixture of acetone/Tween/dimethyl sulphoxide and subsequent dilution with water to the desired concentration. Wheat plants (variety: Scipion) are sown in cultivation dishes on a peat-pozzolanic earth substrate (50/50) at 12° C. and sprayed at the first-leaf stage (10 cm size) with the aqueous suspension described above. As a control, plants are sprayed with an aqueous solution with no active substance. After 24 hours the plants are inoculated by spraying with an aqueous suspension of Puccinia recondita spores (100,000 spores per ml). The spores are derived from a 10 day-old infected wheat crop and are suspended in water with 2.5 ml/l Tween. […] After 10 days they are scored in comparison with the control plants.

Sphaerotheca fuliginea [6] = test: Example D: in vivo test on Sphaerotheca fuliginea (powdery mildew on cucumber); settings: Podosphaera fuliginea, 288 h, cucumber plants sprayed 24 hours before inoculation, scored after 12 days, read-out: % Wirkungsgrad
Outline: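 Cucumber plants at cotyledon stage Z10 were sprayed with the compound suspended in acetone/Tween/DMSO diluted with water. After 24 hours they were inoculated with Sphaerotheca fuliginea spores (100,000/ml) and incubated at ca. 20/25° C. and 60/70% RH. Disease was scored after 12 days against untreated sprayed controls.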

Peronospora parasitica = test: Example A: in vivo test on Peronospora parasitica (downy mildew on white cabbage); settings: Hyaloperonospora parasitica, 120 h, cabbage plants sprayed 24 hours before inoculation, scored after 5 days, read-out: % Wirkungsgrad
Outline: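 Cabbage plants (Eminence) at cotyledon stage sprayed with aqueous compound suspension (acetone/Tween/DMSO, diluted with water), then inoculated 24 h later with P. parasitica spores at 50,000 spores/ml. After 5 days in moist atmosphere at ca. 20 °C, disease scored against untreated sprayed controls.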

[7] = 72 h, read-out: % Inhibition des Pilzwachstums bei 50 μM
[8] = 168 h, read-out: % Inhibition der DON/AcDON produktion bei 50 μM
[9] = LogPA (logP of the stated pure compound or, in a mixture, of the main isomer, 1-substituted 3-aryl-1H-pyrazole)

Fc1ccc(-c2n[nH]cc2-c2ccncc2)cc1 [[IX-1], 4-[3-(4-Fluorophenyl)-1H-pyrazol-4-yl]pyridine hydrochloride]
chromatographic logP ([1]; pH 2.7): 0.65

CCC(=O)Nc1cc(-c2cn(CC)nc2-c2ccc(F)cc2)ccn1 [Compound 198]
% Activity level (Gibberella zeae): 80%
pest or weed control at 1000 ppm (Leptosphaeria nodorum): 100%
pest or weed control at 500 ppm (Sphaerotheca fuliginea [2]): 99%
pest or weed control at 250 ppm (Rhizoctonia solani): 88%
pest or weed control at 100 ppm (Plasmopara viticola): 92%
pest or weed control at 250 ppm (Pyricularia oryzae): 85%
pest or weed control at 1000 ppm [3]: 100%
pest or weed control at 1000 ppm (Fusarium graminearum [4]): 100%
pest or weed control at 250 ppm (Botrytis cinerea): 99%
inhibition at 50 µM (Fusarium graminearum [5]; [7]): 100%
inhibition at 50 µM (Fusarium graminearum [5]; [8]): 100%
chromatographic logP (physchem; LogPA): 1.82
pest or weed control at 100 ppm (Venturia inaequalis): 96%
pest or weed control at 1000 ppm (Rhynchosporium secalis): 90%
inhibition at 50 µM (Fusarium proliferatum; Fusarium proliferatum growth, OD 620, 5 days, read-out: % Inhibition des Pilzwachstums bei 50 μM): 99%
inhibition at 50 µM (Fusarium proliferatum; Fusarium proliferatum, 5 days at 20° C., HPLC-MS/MS, read-out: % Inhibition der FB1 produktion bei 50 μM): 100%
pest or weed control at 1000 ppm (Septoria tritici): 100%
pest or weed control at 250 ppm (Cochliobolus miyabeanus): 90%
% Activity level (Pythium ultimum): 88%
pest or weed control at 500 ppm (Alternaria solani): 93%

CCOC(=O)Nc1cc(-c2cn(CC(F)F)nc2-c2ccc(F)cc2)ccn1 [Compound 241]
chromatographic logP [1]: 2.45
pest or weed control at 500 ppm (Alternaria solani): 94%

c1cc(-c2cnn(C3CCCCO3)c2)ccn1 (stereo not shown) [[XII-1], 4-[1-(Tetrahydro-2H-pyran-2-yl)-1H-pyrazol-4-yl]pyridine]
chromatographic logP ([1]; pH 2.7): 0.38

CC(C)Cn1cc(-c2ccnc3c2C(C)(C)C(=O)N3C)c(-c2ccc(F)cc2)n1 [Compound 148]
chromatographic logP (physchem; [9]): 3.68
% Activity level (Pyricularia grisea): 71%

CCC(C)n1cc(-c2ccncc2)c(-c2ccc(F)cc2)n1 (stereo not shown) [Compound 91]
pest or weed control at 500 ppm (Puccinia recondita): 94%
pest or weed control at 500 ppm (Sphaerotheca fuliginea [2]): 100%
chromatographic logP (physchem; [9]): 1.5
% Activity level (Pyricularia grisea): 75%
pest or weed control at 500 ppm (Sphaerotheca fuliginea [6]): 88%
pest or weed control at 500 ppm (Peronospora parasitica): 89%
pest or weed control at 500 ppm (Alternaria solani): 95%

CCC[CH2][Sn]([CH2]CCC)([CH2]CCC)[c]1c(-c2ccncc2)cnn1C1CCCCO1 (stereo not shown) [[XI-1], 4-[1-(Tetrahydro-2H-pyran-2-yl)-5-(tributylstannyl)-1H-pyrazol-4-yl]pyridine]
chromatographic logP ([1]; pH 2.7): 5.09

CCOC(=O)Nc1cc(-c2cn(CC3CC3(Cl)Cl)nc2-c2ccc(F)cc2)ccn1 (stereo not shown) [Compound 264]
inhibition at 50 µM (Fusarium graminearum [5]; [7]): 17%
inhibition at 50 µM (Fusarium graminearum [5]; [8]): 99%
chromatographic logP [1]: 3.37
